Common to all, as to experiment: DTP human tumour cell line panel, 48 h
The subject of test [1] is M14 melanoma.
Test [2] deals with RPMI-8226 leukemia.
Test [3] relates to CAKI-1 renal.
In test [4] the test system is SK-MEL-28 melanoma.
Test [5] deals with KM12 colon.
For test [6], the system named is NCI-H460 lung.
For test [7], the system named is SF-295 CNS.
Test [8] relates to OVCAR-3 ovarian.
For test [9], the system named is CCRF-CEM leukemia.
For test [10], the system named is SR leukemia.

9 molecules from PubChem BioAssay (NCI) can be followed below.

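Cultured in 96-well plates, cells were exposed to test compound for 48 hours across five concentrations. GI50 marks 50% less growth. At the TGI there is no net growth.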

The term TGI denotes the concentration giving total growth inhibition. Low readings indicate greater sensitivity of the cells, high ones lower sensitivity of the cells. With `C=C(CCCCCCCCC)CC(=O)SCCNC(=O)CCNC(=O)C(O)C(C)(C)COP(=O)(O)OP(=O)(O)OCC1OC(n2cnc3c(N)ncnc32)C(O)C1OP(=O)(O)O` (stereo not given), the TGI in test [1] was 65 µM; in test [2], 62.7 µM; in test [3], greater than 100 µM; in [4] it was 21.6 µM; in [5], greater than 100 µM; in [6], greater than 100 µM. The TGI in test [7], in test [8], in [9] and in test [10] was greater than 100 µM throughout.
The GI50 is the concentration giving 50% growth inhibition. For the molecule `Cc1ccc(/C(=N\N=C(N)N)c2ccccc2)cc1`, the concentration for 50% growth inhibition (GI50) in [1] is 0.285 µM; in test [2], 0.692 µM; in test [3], 0.843 µM; in test [4] it was 0.535 µM; in test [5], 0.367 µM; in test [6], 0.33 µM. For the same molecule, the GI50 in test [7] was 0.306 µM; in test [8] it was 0.228 µM; in test [9] it was 0.689 µM; in test [10], 1.83 µM. For the same molecule, the total growth inhibition concentration (TGI) in test [1] was 0.977 µM; in [2] it was 42.7 µM; in test [3] it was 20.1 µM; in [4], 15.4 µM; in test [5], 5.05 µM; in [6], 3.19 µM. For the same molecule, the TGI was 3.15 µM in test [7], 0.597 µM in test [8], greater than 100 µM in [9] and 24.8 µM in [10].
With `FC(F)(F)c1cc(-c2nnc3n2N=C(N2CCCC2)CS3)cc(C(F)(F)F)c1`, the GI50 in [1] was greater than 50 µM; in [2], greater than 50 µM; in test [3], greater than 50 µM; in test [4], greater than 50 µM; in test [5], greater than 50 µM; in test [6] it was 7.15 µM. The GI50 in [7] is 19.2 µM; in test [8], 5.27 µM; in test [9], greater than 50 µM; in [10], 48.8 µM. In addition, the TGI in [1], in test [2], in [3], in [4], in test [5] and in test [6] was greater than 50 µM in each case. Besides, the concentration for total growth inhibition (TGI) was greater than 50 µM in test [7], 28.8 µM in test [8], greater than 50 µM in [9] and greater than 50 µM in test [10].
On to `CCC(=O)O[C@H]1CC[C@H]2[C@@H]3CC[C@H]4CC(=O)[C@H](C)C[C@]4(C)[C@H]3CC[C@]12C`, for which the GI50 in test [1] was 48.1 µM; in test [2], 2.52 µM; in [3], greater than 41.7 µM; in test [4] it was greater than 88.7 µM; in test [5], 34.6 µM; in [6], 13 µM. The GI50 in test [7] was 20.9 µM; in test [8], 31.2 µM; in test [9] it was 18.8 µM; in test [10], 3.21 µM. The TGI is greater than 100 µM in [1]; 13 µM in [2]; greater than 100 µM in test [3]; greater than 100 µM in test [4]; greater than 100 µM in [5]; 97.4 µM in test [6]. The TGI in [7] is greater than 78 µM; in [8], greater than 84.1 µM; in test [9], greater than 100 µM; in test [10], 21.8 µM.
As to `CCOC(=O)C1(Br)C(c2ccccc2)NC(=O)NC1(C)Br` (stereo not given), the total growth inhibition concentration (TGI) in test [1] is greater than 100 µM; in test [2], greater than 88.9 µM; in [3] it was greater than 62.4 µM; in test [4], greater than 100 µM; in [5] it was greater than 100 µM; in test [6] it was greater than 100 µM. In addition, the TGI in test [7] is greater than 100 µM; in test [8] it was greater than 100 µM; in test [9] it was 99.8 µM; in test [10], greater than 100 µM.
Consider `COc1ccccc1/C=C/[N+](=O)[O-]`, for which the GI50 in [1] was 1.89 µM; in test [2], 1.05 µM; in test [3], 2.95 µM; in test [4], 1.62 µM; in test [5], 3.02 µM; in [6] it was 2.03 µM. Also, the GI50 in test [7] is 4.67 µM; in test [8] it was 2.23 µM; in test [9], 2.16 µM; in test [10], 0.886 µM. The TGI in test [1] was 3.94 µM; in [2] it was 3.78 µM; in [3], 46.6 µM; in test [4] it was 3.66 µM; in test [5], 8.59 µM; in test [6], 4.35 µM. The total growth inhibition concentration (TGI) turned out to be 20.5 µM in test [7], 4.67 µM in test [8], 6.47 µM in test [9] and 5.02 µM in test [10].
On to `COc1cc(/C=C\c2ccccc2)cc(OC)c1OC`, for which the TGI in test [1] was 22.1 µM; in test [2], 46.2 µM; in [3], greater than 100 µM; in test [4] it was greater than 100 µM; in test [5] it was greater than 73.1 µM; in test [6] it was 27.3 µM. The TGI in test [7] was 7.21 µM; in test [8], 5.58 µM; in test [9], 49.8 µM; in [10], 26.7 µM.
In the case of `O=C1C=C(NCCNC(=S)Nc2ccccc2)c2nccc3c2c1nc1ccccc13`, the GI50 is 39.3 µM in test [1]; 74.6 µM in test [2]; 33.6 µM in test [3]; greater than 100 µM in test [4]; 41.2 µM in test [5]; 29.4 µM in test [6]. Besides, the GI50 is 39.7 µM in [7], 18.1 µM in test [8], greater than 100 µM in test [9] and 2.97 µM in [10]. The TGI in test [1], in test [2], in [3], in test [4], in test [5] and in [6] was greater than 100 µM each time. Besides, the TGI in [7], in [8], in test [9] and in test [10] was greater than 100 µM each time.
Consider `CCCCCCCNc1nc(C(=O)OCC)ncc1-c1ccc(C(F)(F)F)cc1`, for which the GI50 in test [1] was 35.8 µM; in test [2], 17.8 µM; in test [3] it was 38.2 µM; in test [4], 66.2 µM; in test [5], 33.6 µM; in [6], 14.7 µM. Besides, the GI50 in test [7] is 26.4 µM; in [8], 32.6 µM; in test [9] it was 29.5 µM; in [10] it was 35.5 µM. In addition, the total growth inhibition concentration (TGI) is greater than 100 µM in test [1]; 66.9 µM in test [2]; greater than 100 µM in test [3]; greater than 100 µM in test [4]; greater than 100 µM in test [5]; 32.7 µM in test [6]. In addition, the TGI in test [7], in test [8], in [9] and in test [10] was greater than 100 µM in each case.
